Measurements: patent US20260193295A1, “CILAGICIN COMPOUNDS AND METHODS OF USE THEREOF” (priority 2022, published 2026)
Read-outs that look alike come from different tables or passages of the source. Positions of bridges follow the written chain, without caps; N, C: chain ends. Non-standard residues stand in square brackets, D forms with d. Residues, ends and D or L forms follow the SMILES beside them. *: point of attachment. Myristoyl = CCCCCCCCCCCCCC(=O)*; dDab = NCC[C@@H](N)C(=O)O; Dab = NCC[C@H](N)C(=O)O

Legend:
[1] = test system: S. aureus USA300; assay: Time-dependent killing assay; format: cell-based, Staphylococcus aureus; details: S. aureus USA300, 10x the MIC
Method: An overnight culture of S. aureus USA300 was diluted 1:10,000 in 50 mL fresh LB and incubated at 37° C. with aeration at 220 rpm for 2 hours. Bacteria (3 mL) were challenged with 10× the MIC of each antibiotic (10 μg/mL cilagicin, 10 μg/mL vancomycin). After 1.25, 4, 8, 16 and 24 hours 200 μL aliquots of cells were collected, centrifuged at 10,000×g for 1 minute and then resuspended in 200 μL of sterile PBS (pH 7.4). 50 μL aliquots of 10-fold serial dilutions were plated on LB agar plates. After overnight growth at 37° C., colonies were counted. Experiments were performed three independent times (n=3).

[2] = test system: S. aureus USA300; assay: Cell lysis assay (SYTOX green); format: cell-based, Staphylococcus aureus; details: S. aureus exposed to 8-fold MIC
Method: Cell lytic activity of cilagicin was evaluated using SYTOX green nucleic acid stain (Thermo Fisher, USA). Gramicidin and DMSO were used as positive and negative controls, respectively. S. aureus USA300 was grown overnight at 37° C. with shaking (200 rpm) and then diluted in fresh LB broth to an OD600nm of 0.35. 900 μL of this S. aureus USA300 suspension was mixed with 100 μL of SYTOX (17 μM in DMSO). The mixture was incubated at room temperature for 5 minutes, and then transferred into a 384-well flat bottom black microtiter plate (30 μL/well). The initial fluorescence intensity of each well was recorded using an infinite 200 PRO (Excitation/Emission=488/523 nm) at 9 second intervals for 5 minutes. […] The fluorescence intensity of each well was then continually monitored at 9 second intervals for 25 minutes and plotted by Prism 9.0. All assays were performed in biological triplicates (n=3).

[3] = test system: S. aureus USA300; assay: Membrane depolarization assay (DiSC3(5)); format: cell-based, Staphylococcus aureus; details: S. aureus exposed to 8-fold MIC
Method: The effect of cilagicin on membrane depolarization was analyzed using DiSC3(5) dye (Thermo Fisher, USA). Overnight cultures of S. aureus USA300 were harvested and resuspended in PBS (OD600 nm=0.37). Cell suspension (1 mL) and 10 μL of 4 μM DisC3(5) were pre-mixed and incubated in the dark at room temperature for 15 minutes. 50 μL of this mixture was then added to each well of black 96-well flat bottom black microtiter plates. The initial fluorescence intensity of each well was recorded using an infinite 200 PRO (Excitation/Emission=620/670 nm) at 9 second intervals for 15 minutes. 50 μL of a 1 μM solution of each test compound was then added to each well. Gramicidin (30 μM) and melittin (1 μM) were used as positive controls. DMSO was used as the vehicle control. The fluorescence intensity of each well was then monitored at 9 second intervals for another 15 minutes and plotted by Prism 9.0. All assays were performed in biological triplicate (n=3).

[4] = Isothermal titration calorimetry (ITC); format: binding; details: 25° C., DOPC vesicles
Method: Isothermal titration calorimetry (ITC) The interaction of cilagicin and undecaprenyl phosphate (C55-P, Larodan, SE) or undecaprenyl diphosphate (C55-PP, Larodan, SE) was measured using ITC. Briefly, 0.1 μm of large unilamellar vesicles (LUVs) was prepared by mixing 1,2-dioleoyl-sn-glycero-3-phosphocholine (DOPC, Avanti, AL) and 0.1% of either C55-P or C55-PP in chloroform/methanol (2:1). The resulting lipid suspension was dried under argon gas for 2 hours and then rehydrated in 10 mM HEPES buffer (pH 7.5, 100 mM NaCl). The dried sample was filtered 10 times through an Avanti mini extruder (Avanti, AL) using a 0.1 μM filter membrane. ITC binding experiments were performed using a MicroCal Auto-iTC200. A vesicle suspension of 0.27 μM C55-P or 0.25 μM C55-PP and 2.5 mM DOPC in HEPES buffer was titrated into a freshly made solution of 0.1 mM cilagicin in the same buffer. The titration was conducted under the following conditions: temperature 25° C., reference power 5 uCals-1, syringe-stirring speed 750 rpm, number of injections 19, injection volume 2 μl, and time between injections 150 s. The calorimetric data obtained from the Auto-iTC200 instrument was analyzed using AFFINImeter software. Thermodynamic parameters (enthalpy (AH), entropy (AS), and the equilibrium binding constant (KD)) were calculated using a one-binding site model.

[5] = test system: S. aureus USA300; assay: Resistance studies (daily serial passage at sub-MIC); format: cell-based, Staphylococcus aureus
Method: A single colony of S. aureus USA300 was inoculated in 5 mL LB broth and grown overnight at 37° C. with continuous shaking (200 rpm). The overnight culture was then diluted 1:5,000 into fresh LB. 50 μL aliquots of dilute cells were transferred into individual wells of 96-well plates containing 50 μL of serially diluted cilagicin, amphomycin (AG Scientific, USA) or bacitracin (Sigma, USA). Plates were statically incubated at 37° C. After 24 hours, the MIC was recorded. […] The MIC was determined as described above. This process was repeated daily for 25 days. For bacitracin, the LB medium was supplemented with 50 μg/mL ZnCl2. For amphomycin, the medium was supplemented with 100 μg/mL CaCl2-2H2O. Experiments were performed three independent times (n=3).

[6] = Animal infection model (cilagicin, not further described); format: in vivo
[7] = test system: S. aureus USA300; assay: Scanning electron microscopy of treated cells; format: cell-based, Staphylococcus aureus; details: S. aureus USA300, 10x the MIC, 0-4 hours
Method: S. aureus USA300 cultures at different time points from the time-kill curve analysis (FIG. 2A, 0, 1, 2, and 4 hours) were used in this study. 30 μl of each cell suspension was spotted onto 12 mm glass or Aclar film round coverslips. A drop of fixative (100 μl of 2% glutaraldehyde, 4% formaldehyde in 0.1 M sodium cacodylate buffer pH 7.2) was added on top of the coverslip which was coated with 0.1% polylysine. After 30 minutes, additional fixative was added to the dish containing the coverslips and samples were left at 4° C. overnight. Samples were gently washed three times with 0.1 M sodium cacodylate buffer (pH 7.2) for 5-10 minutes each time and postfixed with osmium tetroxide 1% in 0.1M sodium cacodylate buffer pH 7.2 for 1 hour at room temperature. After rinsing three times with buffer, samples were dehydrated in a graded series of ethanol concentrations (30%, 50%, 70%, 90%) for 10 minutes each and three times in 100% ethanol (with molecular sieves) for 15 minutes each and then further dried in a critical point drier (Tousimis Autosamdri 931, USA). Samples were coated with 10 nm of iridium using a Leica ACE600 sputter coater.

[8] = mice, intraperitoneal (IP) injection

## CCCCCCCCCCCCCC(=O)N[C@H](CO)C(=O)N[C@@H]1C(=O)N[C@H](CCN)C(=O)N[C@@H](CC(=O)O)C(=O)NCC(=O)N[C@H](CC(N)=O)C(=O)N[C@H](CC(=O)O)C(=O)NCC(=O)N[C@@H](Cc2ccc(O)cc2)C(=O)N[C@@H](C(C)C)C(=O)N[C@@H](CCN)C(=O)N[C@@H](Cc2ccccc2)C(=O)O[C@@H]1C [Cilagicin] (Myristoyl-[dS]T[dDab]DG[dN][dD]GYV[Dab]F; ester 2-C)
[1]
  time-dependent killing curve analysis, kind of action: bactericidal
[1]; after 4 hours
  reduction of the number of viable bacteria: more than four orders of magnitude
[2]
  cell lytic activity (SYTOX fluorescence): No response was detected
[3]
  membrane depolarization (DiSC3(5) fluorescence): No response was detected
[4]; read-out: dissociation constant (Kd), C55P
  Kd: 22 nM
[4]; read-out: dissociation constant (Kd), C55PP
  Kd: 56 nM
[5]; S. aureus USA300, after 25 days of constant exposure
  maximum change in MIC (increase): 1 fold
[5]; S. aureus mutants raised by serial passage
  cross resistance of bacitracin resistant and amphomycin resistant mutants: neither the highly bacitracin resistant mutants nor the highly amphomycin resistant mutants that were generated showed cross resistance
[6]
  bacterial burden: did not reduce bacterial burden
[7]
  electron microscopy images of treated cells: cell collapse over time
[8]
  plasma bioavailability: high plasma bioavailability
